Experimental data taken from patent US20240390301A1, “COMBINATIONS OF PERIPHERAL 5-HT2A RECEPTOR ANTAGONISTS AND CENTRAL 5-HT2A RECEPTOR AGONISTS” (priority 2021, published 2024).
Several values for one entry are separate records, joined by “and”; a condition that tells them apart may be missing. Equal entries are not always repeated. Where two headings read alike, the source gives them in different places.

How the values were obtained:
[1] = 37° C.
Procedure: Method 1. Pooled frozen rat brain homogenate was thawed in a water bath at 37° C. prior to the experiment. Using an Apricot automation workstation, 98 μL/well of blank brain homogenate or 100 mM PBS were added to all 96-well reaction plates (Blank, T0, T10, T30, T60, and T120). […] All reaction plates containing mixtures of compound and brain homogenate were incubated at 37° C. in a water bath for up to 120 minutes. At the end of incubation, 500 uL of stop solution (200 ng/mL tolbutamide and 200 ng/mL labetalol in ACN) was added to precipitate protein and mixed thoroughly for 20 minutes at 4° C. After centrifugation at 4,000 rpm and 4° C. for 20 minutes, an Apricot automation workstation was used to transfer 150 μL of supernatant from each reaction plate to its corresponding bioanaylsis plate, which was shaken for 10 minutes prior to LC-MS/MS analysis.
Method 2. Rat brain tissue homogenate samples were prepared by diluting one volume of whole rat brain tissue with two volumes of dialysis buffer (phosphate buffered saline pH 7.4-0.1 M sodium phosphate and 0.15 M sodium chloride) to yield 3 times diluted homogenate. Test compounds were spiked into 400 μL aliquots (n=3) of rat brain homogenate and the resulting mixtures were incubated at 37° C. […] An aliquot (100 μL) of each sample was transferred to a 96-well deep plate and analyzed by LC-MS/MS.

in vitro = assay: in vitro; parameters: fraction unbound at 4 h: dose or concentration left out as unconfirmed; settings: rat, brain homogenate
Procedure: Various putative peripheral 5-HT2A receptor antagonists were tested for binding to rat brain homogenate via equilibrium dialysis, with the results summarized in Table 7.
Method 1. Rat brain homogenate was thawed in a water bath at room temperature and then incubated at 37° C. for 10 min before use. Aliquots of 50 μL of loading matrix containing test compound (2 μM final incubation concentration) or control compound in triplicate were transferred to a Sample Collection Plate. The samples were matched with opposite blank buffer to obtain a final volume of 100 μL with a volume ratio of matrix: Dialysis Buffer of 1:1 (v:v) in each well. The stop solution (200 ng/mL tolbutamide and 200 ng/ml labetalol in ACN) was immediately added to these T0 samples of test compound and control compound. The plate was sealed and shaken at 800 rpm for 10 min. T0 samples were stored at 2-8° C. pending further processing along with other post-dialysis samples. An aliquot of 100 μL of the loading matrix containing test compound or control compound was transferred to the donor side of each dialysis well in triplicate and 100 μL of the Dialysis Buffer was loaded to the receiver side of the well. Then the plate was rotated at approximately 100 rpm in a humidified incubator with 5% CO2 at 37±1° C. for 4 hours. At the end of the dialysis. aliquots of 50 μL from the buffer side and matrix side of the dialysis device were taken into new 96-well plates (Sample Collection Plates). An equal volume of opposite blank matrix (buffer or matrix) in each sample was added to reach a final volume of 100 μL, with a volume ratio of matrix: Dialysis Buffer of 1:1 (v:v) in each well. All samples were further processed by protein precipitation before LC-MS/MS analysis.
Method 2. Aliquots (200 μL) of test compounds and positive controls at […] in rat brain homogenate (triplicates) were added to the rapid equilibrium dialysis (RED) chamber of dialysis inserts. A 350 μL aliquot of dialysis buffer was added to the buffer chamber of the inserts. After sealing the RED device with an adhesive film, dialysis was conducted at 37° C. with shaking at 100 RPM for 4 hours. Following dialysis, an aliquot of 50 μL was removed from each well (brain homogenate and buffer) and diluted with an equal volume of opposite matrix to nullify the matrix effect. Similarly, buffer was added to recovery and stability samples. An aliquot of 100 μL was used for LC-MS/MS analysis following protein precipitation with ACN containing internal standard.

in vivo = assay: in vivo
Procedure: The pharmacokinetics of peripheral 5-HT2A antagonists were studied in the plasma (Tables 11 and 12) and brains (Table 13 and 14) of rats after subcutaneous (SC) dosing. The results were used to interpret the in vivo pharmacological results.
Animals. Male Sprague Dawley rats, aged 8-12 weeks. were used in these studies. Four rats were housed in each cage. […] Temperature and humidity were recorded by an auto-controlled data logger system. All animals were provided laboratory rodent diet and were fasted for 4 h pre-dose and 2 h post-dose. Reverse osmosis water treated with ultraviolet light was provided ad libitum. Animals were randomly assigned to treatment groups.
Drugs and Drug Administration. Test compounds were prepared as described above or commercially obtained. They were administered subcutaneously (SC) at a dose of 1 or 10 mg/kg (as indicated, calculated based on the free base) and at a volume of 5 mL/kg body weight.
Sample Collection and Bioanalysis. […] SC. […] For both studies, immediately after blood collection, plasma was harvested by centrifugation at 4,000 rpm for 10 min at 4° C. and samples were stored at −70±10° C. until bioanalysis. Following blood collection, animals were immediately sacrificed, the abdominal vena-cava was cut open, and the whole body was perfused from the heart using 10 mL of normal saline, and brain samples were collected from all animals. After isolation, brain samples were rinsed three times in ice-cold normal saline (for 5-10 seconds/rinse using ˜5-10 mL normal saline in disposable petri dish for each rinse) and dried on blotting paper. Brain samples were homogenized using ice-cold phosphate-buffered saline (pH 7.4). Total homogenate volume was three times the tissue weight. All homogenates were stored at −70±10° C. until bioanalysis. For bioanalysis, 25 μL aliquots of plasma/brain study samples or spiked plasma/brain calibration standards were added to individual pre-labeled micro-centrifuge tubes followed by 100 μL of an internal standard solution (glipizide, 500 ng/ml in acetonitrile) except for blanks, where 100 μL of acetonitrile was added. Samples were vortexed for 5 minutes and then centrifuged for 10 minutes at 4,000 rpm at 4° C. Following centrifugation, 100 μL of each clear supernatant was transferred to a 96-well plate and analyzed with a fit-for-purpose LC-MS/MS method, with authentic samples of each analyte used for calibration and identification.

[2] = male, Sprague Dawley, rat, in vivo, sc, 1 mg/kg
[3] = male, Sprague Dawley, rat, in vivo, sc, 10 mg/kg
[4] = Method 2: 3 times diluted homogenate

CC(CNC(=N)CNc1ccccc1)Oc1cccc(Cl)c1.O=CO (centres unmarked) [BW501C67, N-(2-(3-chlorophenoxy)propyl)-2-(phenylamino)acetimidamide formate]
% Remaining (120 minutes), rat brain homogenate ([1]; Method 1: 1 μM): 110.8%
fraction unbound at 4 h, 2 μM (in vitro): 0.003
Cmax (in vivo; [2]): 91.4 ng/mL and 32.3 ng/g
concentration at 0.167 h (in vivo; [2]): 91.4 ng/mL and 10.4 ng/g
concentration at 0.5 h (in vivo; [2]): 73.8 ng/mL and 13.6 ng/g
half-life (in vivo; [2]): 187 min
AUC(0-t) (in vivo; male, Sprague Dawley, rat, in vivo, sc, 1 mg/kg, AUC0-last (h*ng/mL), brain, 1 mg/kg SC): 0.436 µg·h/mL
AUC(0-t) (in vivo; male, Sprague Dawley, rat, in vivo, sc, 1 mg/kg, AUC0-last (h*ng/mL), plasma, 1 mg/kg SC): 0.277 µg·h/mL
Tmax (in vivo; male, Sprague Dawley, rat, in vivo, sc, 1 mg/kg, Tmax (h), brain, 1 mg/kg SC): 240 min
Tmax (in vivo; male, Sprague Dawley, rat, in vivo, sc, 1 mg/kg, Tmax (h), plasma, 1 mg/kg SC): 10.2 min

CC(C)COc1ccc(CNC(=O)N(Cc2ccc(F)cc2)C2CCN(C(=O)CC[C@H](N)C(=O)O)CC2)cc1 [Compound 14a, (S)-2-amino-5-(4-(1-(4-fluorobenzyl)-3-(4-isobutoxybenzyl)ureido)piperidin-1-yl)-5-oxopentanoic acid]
fraction unbound at 4 h (in vitro): 0.078
AUC(0-t) (in vivo; [2]): 0.434 µg·h/mL
Cmax (in vivo; [2]): 0.271 µg/mL
Tmax (in vivo; [2]): 30 min
concentration at 0.167 h (in vivo; [2]): 0.265 µg/mL
concentration at 0.5 h (in vivo; [2]): 0.271 µg/mL
half-life (in vivo; [2]): 51 min
concentration at 0.167 h (in vivo; [3]): 966 ng/mL and 35.6 ng/g
concentration at 0.5 h (in vivo; [3]): 1530 ng/mL and 40.7 ng/g

COc1cccc(CCc2ccccc2OCC(CN(C)C)OC(=O)CCC(=O)O)c1 (centres unmarked) [sarpogrelate]
fraction unbound at 4 h (in vitro): 0.054
concentration at 0.167 h (in vivo; [3]): 2130 ng/mL and 28.9 ng/g
concentration at 0.5 h (in vivo; [3]): 2990 ng/mL and 31.8 ng/g

COc1cccc(C(=O)Nc2ccc(OCCN3CCOCC3)c(-c3ccnn3C)c2)c1 [temanogrel]
% Remaining (120 minutes), rat brain homogenate [1, 4]: 101%
fraction unbound at 4 h (in vitro): 0.108
concentration at 0.167 h (in vivo; [3]): 411 ng/mL and 113 ng/g
concentration at 0.5 h (in vivo; [3]): 518 ng/mL and 148 ng/g

COc1cccc(OC(C)CNC(=N)Cc2cccc(C)c2)c1.O=C(O)C(F)(F)F (centres unmarked) [xylamidine, N-(2-(3-methoxyphenoxy)propyl)-2-(m-tolyl) acetimidamide trifluoroacetate]
% Remaining (120 minutes), rat brain homogenate [1, 4]: 100%
Tmax (in vivo; brain, 1 mg/kg SC): 60 min
t1/2 (in vivo; brain, 1 mg/kg SC): 289 min
0.167 h (ng/g) brain concentration (in vivo; brain, 1 mg/kg SC, 0.167 h): 14.4 ng/g
0.5 h (ng/g) brain concentration (in vivo; brain, 1 mg/kg SC, 0.5 h): 35.4 ng/g
Mean brain concentration 0.167 h (in vivo; brain, 10 mg/kg SC, 0.167 h): 100.8 ng/g
Mean brain concentration 0.5 h (in vivo; brain, 10 mg/kg SC, 0.5 h): 60.7 ng/g
AUC0-last (in vivo; plasma, 1 mg/kg SC): 0.3436 µg·h/mL
Cmax (in vivo; plasma, 1 mg/kg SC): 0.1554 µg/mL
Tmax (in vivo; plasma, 1 mg/kg SC): 10.2 min
t1/2 (in vivo; plasma, 1 mg/kg SC): 103 min
0.167 h (ng/mL) plasma concentration (in vivo; plasma, 1 mg/kg SC, 0.167 h): 155.4 ng/mL
0.5 h (ng/mL) plasma concentration (in vivo; plasma, 1 mg/kg SC, 0.5 h): 133.4 ng/mL
Mean plasma concentration 0.167 h (in vivo; plasma, 10 mg/kg SC, 0.167 h): 1.0992 µg/mL
Mean plasma concentration 0.5 h (in vivo; plasma, 10 mg/kg SC, 0.5 h): 0.67 µg/mL
